Assay results published in patent US7722890B2, “Synthetic anti-Candida albicans oligosaccharide based vaccines” (Theracarb, Inc., priority 2002, dated 2010).

Columns and labels:
MAb C3.1 (IgG3) = experiment: competitive inhibition ELISA: binding of IgG MAb C3.1 to C. albicans mannan extract; design: species or system mouse
Method: These monoclonal antibodies are IgM B6.1 and IgG C3.1. The affinity of these monoclonal antibodies for the synthesized propyl glycosides was determined in a competitive inhibition ELISA. The monoclonal antibodies, MAb B6.1 (IgM) and MAb C3.1 (IgG3) were produced as concentrated tissue culture supernatants and diluted ˜1:40,000 (B6.1) and ˜1:2000 (C3.1). C. albicans mannan obtained by 2-mercaptoethanol extraction of whole cells without subsequent affinity fractionation^27 was dissolved in PBS (10 μg/mL) and the solution was used to coat 96 well ELISA plates (100 μL, 18 h at 4° C.). The plate was washed five times with PBST containing Tween 20, 0.05% v/v) and blocked for 1 h at room temperature (2% BSA PBS, 100 μL). The monoclonal antibodies were mixed with inhibitor dissolved in PBST at concentrations in the range between 0.1 μM to 1 mM, and the resulting solutions were added to the coated microtitre plate in triplicate and incubated at room temperature for 18 h. The plate was washed with PBST (5×), and goat anti-mouse (IgG or IgM) antibody conjugated to horseradish peroxidase (diluted 1:2000, Kirkegaard and Perry Lab) in PBST (100 μL) was added and incubated for 1 h at room temperature. […]

[1] = test system: IgM monoclonal antibody B6.1; experiment: competitive inhibition ELISA: binding of IgM MAb B6.1 to C. albicans mannan extract; design: species or system mouse; details: FIG. 7
Method: These monoclonal antibodies are IgM B6.1 and IgG C3.1. The affinity of these monoclonal antibodies for the synthesized propyl glycosides was determined in a competitive inhibition ELISA. The monoclonal antibodies, MAb B6.1 (IgM) and MAb C3.1 (IgG3) were produced as concentrated tissue culture supernatants and diluted ˜1:40,000 (B6.1) and ˜1:2000 (C3.1). C. albicans mannan obtained by 2-mercaptoethanol extraction of whole cells without subsequent affinity fractionation^27 was dissolved in PBS (10 μg/mL) and the solution was used to coat 96 well ELISA plates (100 μL, 18 h at 4° C.). The plate was washed five times with PBST containing Tween 20, 0.05% v/v) and blocked for 1 h at room temperature (2% BSA PBS, 100 μL). The monoclonal antibodies were mixed with inhibitor dissolved in PBST at concentrations in the range between 0.1 μM to 1 mM, and the resulting solutions were added to the coated microtitre plate in triplicate and incubated at room temperature for 18 h. The plate was washed with PBST (5×), and goat anti-mouse (IgG or IgM) antibody conjugated to horseradish peroxidase (diluted 1:2000, Kirkegaard and Perry Lab) in PBST (100 μL) was added and incubated for 1 h at room temperature. The plate was washed with PBST (5×), 3,3′,5,5′-tetramethylbenzidine (TMB, 100 μL, Kirkegaard and Perry Lab) was added, and after 2 minutes the colour reaction was stopped by the addition of 1M phosphoric acid (100 μL). Absorbance was read at 450 nm and percent inhibition was calculated relative to wells containing antibody without inhibitor, and the concentration of ligand that gives 50% inhibition is quoted as an IC50 value.

| Compound | affinity for the IgG antibody relative to the IgM MAb (MAb C3.1 (IgG3); FIG. 8 vs FIG. 7) | affinity of IgM antibody B6.1 for propyl mannosides [1] | affinity / inhibition curve for the IgG antibody (MAb C3.1 (IgG3); FIG. 8) |
| --- | --- | --- | --- |
| CCCOC1OC(CO)C(O)C(O)C1OC1OC(CO)C(O)C(O)C1OC1OC(CO)C(O)C(O)C1O (centres unmarked) [compound 18] | two fold | surprisingly high affinity | – |
| CCCO[C@@H]1O[C@H](CO)[C@@H](O)[C@H](O)[C@@H]1O[C@@H]1O[C@H](CO)[C@@H](O)[C@H](O)[C@@H]1O [compound 17] | – | surprisingly high affinity | flattened binding curve |
| propyl (1-thio-β-D-mannopyranosyl)-(1→2)-β-D-mannopyranotrioside [compound 32] | – | falls between the tri and tetrasaccharide in affinity | – |
